ChEMBL document CHEMBL1139012, “Synthesis and biological evaluation of purealin and analogues as cytoplasmic dynein heavy chain inhibitors” (J Med Chem, 2006)

How the values were obtained:
2008 = assay: Antiproliferative activity against human 2008 ovarian carcinoma cells by MTS assay; format: functional
MDA-MB-231 = assay: Antiproliferative activity against human MDA-MB-231 breast carcinoma cells by MTS assay; format: functional
HT-29 = assay: Antiproliferative activity against human HT29 colon carcinoma cells by MTS assay; format: functional
PC-3 = assay: Antiproliferative activity against human PC3 prostate carcinoma cells by MTS assay; format: functional
L1210 = assay: Antiproliferative activity against mouse L1210 leukemia cell line by MTS assay; format: functional
[1] = target: Cytoplasmic dynein 1 heavy chain 1 (Rattus norvegicus, UniProt P38650); assay: Inhibition of MT-stimulated ATPase activity of rat cytoplasmic dynein heavy chain motor domain
Chain of Cytoplasmic dynein 1 heavy chain 1 (P38650 whole entry, the tested form may be a part): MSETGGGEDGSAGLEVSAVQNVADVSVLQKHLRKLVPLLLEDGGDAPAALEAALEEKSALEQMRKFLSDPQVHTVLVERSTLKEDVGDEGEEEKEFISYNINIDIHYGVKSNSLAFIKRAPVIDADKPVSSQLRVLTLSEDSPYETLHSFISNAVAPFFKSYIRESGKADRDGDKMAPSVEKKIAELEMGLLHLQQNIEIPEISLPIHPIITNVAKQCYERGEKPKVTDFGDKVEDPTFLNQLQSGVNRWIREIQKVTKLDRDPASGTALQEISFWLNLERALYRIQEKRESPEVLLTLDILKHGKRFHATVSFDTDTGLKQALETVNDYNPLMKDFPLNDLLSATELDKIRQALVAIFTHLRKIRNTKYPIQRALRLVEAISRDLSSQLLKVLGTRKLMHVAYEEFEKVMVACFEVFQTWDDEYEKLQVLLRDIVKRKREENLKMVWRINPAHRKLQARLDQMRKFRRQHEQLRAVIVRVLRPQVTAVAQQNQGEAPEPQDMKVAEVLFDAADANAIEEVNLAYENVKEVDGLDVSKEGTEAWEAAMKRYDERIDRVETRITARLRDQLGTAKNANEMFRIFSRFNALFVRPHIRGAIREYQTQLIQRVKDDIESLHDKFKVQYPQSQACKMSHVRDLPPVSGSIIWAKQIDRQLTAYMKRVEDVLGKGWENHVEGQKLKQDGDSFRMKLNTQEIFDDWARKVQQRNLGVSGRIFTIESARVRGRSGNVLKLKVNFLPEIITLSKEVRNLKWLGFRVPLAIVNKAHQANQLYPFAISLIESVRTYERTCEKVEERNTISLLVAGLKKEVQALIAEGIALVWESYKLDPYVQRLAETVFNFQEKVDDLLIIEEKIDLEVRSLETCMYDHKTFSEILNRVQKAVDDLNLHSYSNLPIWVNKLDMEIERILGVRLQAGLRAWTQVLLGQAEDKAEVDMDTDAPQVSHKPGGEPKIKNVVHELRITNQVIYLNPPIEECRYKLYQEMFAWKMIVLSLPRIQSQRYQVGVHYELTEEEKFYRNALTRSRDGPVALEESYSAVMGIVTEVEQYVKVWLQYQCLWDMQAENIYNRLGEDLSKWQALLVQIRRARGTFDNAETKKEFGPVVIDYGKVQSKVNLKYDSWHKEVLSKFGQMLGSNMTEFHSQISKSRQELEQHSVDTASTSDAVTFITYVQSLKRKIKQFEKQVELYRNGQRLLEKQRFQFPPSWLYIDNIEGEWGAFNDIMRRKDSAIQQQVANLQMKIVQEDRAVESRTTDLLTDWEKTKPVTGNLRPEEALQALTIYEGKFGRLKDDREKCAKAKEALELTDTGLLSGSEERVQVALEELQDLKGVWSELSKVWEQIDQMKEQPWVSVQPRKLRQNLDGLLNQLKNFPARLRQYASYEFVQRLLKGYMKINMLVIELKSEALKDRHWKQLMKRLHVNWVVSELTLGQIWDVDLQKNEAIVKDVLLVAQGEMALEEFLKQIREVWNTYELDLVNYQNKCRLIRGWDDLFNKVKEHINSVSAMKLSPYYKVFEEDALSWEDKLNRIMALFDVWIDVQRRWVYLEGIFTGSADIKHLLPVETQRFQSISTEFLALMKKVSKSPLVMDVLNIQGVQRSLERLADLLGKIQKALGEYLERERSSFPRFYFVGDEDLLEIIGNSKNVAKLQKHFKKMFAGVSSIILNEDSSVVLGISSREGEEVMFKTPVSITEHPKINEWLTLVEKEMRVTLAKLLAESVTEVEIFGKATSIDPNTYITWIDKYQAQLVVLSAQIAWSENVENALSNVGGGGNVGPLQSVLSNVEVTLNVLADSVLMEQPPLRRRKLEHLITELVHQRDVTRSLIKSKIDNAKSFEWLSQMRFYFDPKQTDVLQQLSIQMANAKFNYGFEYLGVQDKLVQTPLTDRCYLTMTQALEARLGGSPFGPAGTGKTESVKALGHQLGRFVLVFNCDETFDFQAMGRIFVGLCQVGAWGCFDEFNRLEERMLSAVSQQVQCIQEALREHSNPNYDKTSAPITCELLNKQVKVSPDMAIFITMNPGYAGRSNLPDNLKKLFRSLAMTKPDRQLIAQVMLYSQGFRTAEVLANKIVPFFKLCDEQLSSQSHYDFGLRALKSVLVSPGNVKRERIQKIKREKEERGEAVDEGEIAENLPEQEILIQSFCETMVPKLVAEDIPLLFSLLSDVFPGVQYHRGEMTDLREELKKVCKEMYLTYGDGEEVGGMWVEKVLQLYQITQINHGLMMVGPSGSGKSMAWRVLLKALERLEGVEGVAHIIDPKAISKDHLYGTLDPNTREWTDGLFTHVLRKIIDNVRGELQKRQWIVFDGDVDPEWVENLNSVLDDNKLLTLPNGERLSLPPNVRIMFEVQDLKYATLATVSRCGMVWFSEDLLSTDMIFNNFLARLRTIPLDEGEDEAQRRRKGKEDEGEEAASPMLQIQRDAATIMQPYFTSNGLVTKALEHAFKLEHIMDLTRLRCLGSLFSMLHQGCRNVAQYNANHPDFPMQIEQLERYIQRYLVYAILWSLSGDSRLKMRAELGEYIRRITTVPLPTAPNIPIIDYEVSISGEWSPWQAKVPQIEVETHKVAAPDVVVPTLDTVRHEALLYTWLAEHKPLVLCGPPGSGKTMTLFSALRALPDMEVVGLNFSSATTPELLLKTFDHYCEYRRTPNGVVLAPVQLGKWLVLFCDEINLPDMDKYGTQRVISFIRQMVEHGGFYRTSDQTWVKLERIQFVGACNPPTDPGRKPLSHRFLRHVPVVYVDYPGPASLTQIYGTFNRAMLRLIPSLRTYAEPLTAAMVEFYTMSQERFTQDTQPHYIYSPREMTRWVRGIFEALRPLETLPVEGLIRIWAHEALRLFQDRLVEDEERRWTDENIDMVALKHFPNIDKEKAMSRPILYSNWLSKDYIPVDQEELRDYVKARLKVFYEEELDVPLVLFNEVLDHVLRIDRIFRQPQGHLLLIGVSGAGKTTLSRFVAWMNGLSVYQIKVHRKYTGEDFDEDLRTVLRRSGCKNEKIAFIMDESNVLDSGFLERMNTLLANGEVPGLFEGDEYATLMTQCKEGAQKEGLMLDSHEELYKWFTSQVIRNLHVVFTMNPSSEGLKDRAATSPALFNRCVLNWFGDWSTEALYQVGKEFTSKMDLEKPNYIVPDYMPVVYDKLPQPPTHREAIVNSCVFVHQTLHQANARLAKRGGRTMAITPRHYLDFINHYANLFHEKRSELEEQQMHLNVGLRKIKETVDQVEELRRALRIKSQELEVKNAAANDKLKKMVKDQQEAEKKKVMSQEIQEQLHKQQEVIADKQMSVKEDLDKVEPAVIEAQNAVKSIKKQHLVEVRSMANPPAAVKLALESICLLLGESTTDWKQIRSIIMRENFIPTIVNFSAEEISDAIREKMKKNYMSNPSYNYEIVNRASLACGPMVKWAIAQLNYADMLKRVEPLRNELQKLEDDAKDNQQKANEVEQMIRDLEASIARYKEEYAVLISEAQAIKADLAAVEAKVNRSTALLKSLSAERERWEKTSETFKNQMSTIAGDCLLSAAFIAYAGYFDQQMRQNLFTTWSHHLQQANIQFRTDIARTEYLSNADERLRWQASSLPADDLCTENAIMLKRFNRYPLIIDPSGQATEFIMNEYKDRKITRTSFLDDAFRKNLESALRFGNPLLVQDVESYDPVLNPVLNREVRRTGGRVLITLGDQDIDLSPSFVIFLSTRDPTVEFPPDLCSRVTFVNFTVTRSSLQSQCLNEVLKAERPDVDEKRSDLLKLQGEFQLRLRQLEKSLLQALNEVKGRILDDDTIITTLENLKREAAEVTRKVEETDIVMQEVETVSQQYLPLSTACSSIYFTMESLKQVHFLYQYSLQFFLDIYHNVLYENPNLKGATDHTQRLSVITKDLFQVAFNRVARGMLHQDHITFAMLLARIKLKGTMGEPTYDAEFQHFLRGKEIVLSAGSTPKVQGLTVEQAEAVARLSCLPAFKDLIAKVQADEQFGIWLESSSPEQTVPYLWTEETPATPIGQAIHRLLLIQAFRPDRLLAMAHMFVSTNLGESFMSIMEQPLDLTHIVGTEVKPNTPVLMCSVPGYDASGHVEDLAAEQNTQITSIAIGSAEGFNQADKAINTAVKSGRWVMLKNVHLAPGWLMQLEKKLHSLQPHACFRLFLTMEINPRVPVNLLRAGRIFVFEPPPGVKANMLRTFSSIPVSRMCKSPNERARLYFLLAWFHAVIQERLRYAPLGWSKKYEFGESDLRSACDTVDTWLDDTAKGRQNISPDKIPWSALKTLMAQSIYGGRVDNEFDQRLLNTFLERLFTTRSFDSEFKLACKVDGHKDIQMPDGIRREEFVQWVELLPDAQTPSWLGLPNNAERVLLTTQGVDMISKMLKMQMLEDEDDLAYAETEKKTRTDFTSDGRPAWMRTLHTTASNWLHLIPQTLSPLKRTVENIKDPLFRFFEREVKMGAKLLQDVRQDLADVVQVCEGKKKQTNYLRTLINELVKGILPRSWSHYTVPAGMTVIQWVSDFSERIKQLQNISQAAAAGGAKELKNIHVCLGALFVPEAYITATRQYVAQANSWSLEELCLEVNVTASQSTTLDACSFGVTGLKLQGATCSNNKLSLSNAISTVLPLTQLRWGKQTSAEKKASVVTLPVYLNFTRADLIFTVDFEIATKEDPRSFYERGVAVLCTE

SMILES | GI50 2008 [µM] | GI50 (MDA-MB-231) [µM] | GI50 (HT-29) [µM] | GI50 (PC-3) [µM] | GI50 (L1210) [µM] | IC50 [1] [µM]
COc1ccc(CCNC(=O)/C(Cc2ccc(OCCCN)c(Br)c2)=N\O)cc1 | 31 | 48 | 30 | 39 | 9.9 | –
COc1ccc(CCNC(=O)/C(Cc2cc(Br)cc(Br)c2OCCCN)=N\O)cc1 | 25 | 8.8 | 4.9 | 35 | 6.2 | –
NCCCOc1c(Cl)cc(Cl)cc1C/C(=N/O)C(=O)NCCc1c[nH]c2ccccc12 | 5.7 | 5.3 | 6 | 5 | 5.8 | > 50
NCCCOc1c(Cl)cc(Cl)cc1C/C(=N/O)C(=O)NCCc1ccccc1 | 8.8 | 7.6 | 5.6 | 31 | 7.5 | –
NCCCOc1ccc(C/C(=N/O)C(=O)NCCc2ccc(Cl)cc2)cc1Br | 27 | 26 | 27 | 33 | 6.5 | > 50
NCCCOc1c(Br)cc(Br)cc1C/C(=N/O)C(=O)NCCc1ccc(Cl)cc1 | 5.6 | 5.6 | 5.3 | 15 | 6.3 | > 50
COc1ccc(CCNC(=O)/C(Cc2cc(Cl)cc(Cl)c2OCCCN)=N\O)cc1 | 29 | 24 | 6.2 | 32 | 6.9 | –
NCCCOc1ccc(C/C(=N/O)C(=O)NCCc2ccccc2)cc1Br | 30 | > 50 | 27 | 31 | 6.2 | –
NCCCOc1c(Br)cc(C/C(=N/O)C(=O)NCCc2c[nH]c3ccccc23)cc1Br | 27 | 24 | 26 | 26 | 5.8 | –
NCCCOc1c(Cl)cc(Cl)cc1C/C(=N/O)C(=O)NCCc1ccc(Cl)cc1 | 5.4 | 5.2 | 5.5 | 7.8 | 5.9 | –
NCCCOc1c(Br)cc(Br)cc1C/C(=N/O)C(=O)NCCc1c[nH]c2ccccc12 | 7.5 | 6.7 | 6 | 31 | 5.4 | > 50
NCCCOc1c(Br)cc(C/C(=N/O)C(=O)NCCc2ccccc2)cc1Br | 29 | 27 | 31 | 31 | 6.4 | –
NCCCOc1c(Br)cc(Br)cc1C/C(=N/O)C(=O)NCCc1ccccc1 | 19 | 5.7 | 5.3 | 19 | 6.3 | –
NCCCOc1ccc(C/C(=N/O)C(=O)NCCc2c[nH]c3ccccc23)cc1Br | 26 | 25 | 30 | 32 | 7.6 | > 50
COc1ccc(CCNC(=O)/C(Cc2cc(Br)c(OCCCN)c(Br)c2)=N\O)cc1 | 24 | 17 | 20 | 21 | 2.8 | –
NCCCOc1c(Br)cc(C/C(=N/O)C(=O)NCCc2ccc(Cl)cc2)cc1Br | 29 | 27 | 31 | 30 | 7.8 | –
C=C/C=C\[C@H](C)[C@H](OC(N)=O)[C@@H](C)[C@H](O)[C@@H](C)C/C(C)=C\[C@H](C)[C@@H](O)[C@@H](C)/C=C\[C@@H](O)C[C@@H]1OC(=O)[C@H](C)[C@@H](O)[C@H]1C [DISERMOLIDE] | 0.0027 | 0.04 | 0.028 | 0.052 | 0.0092 | –
CCCCCCCCCCCCCC(=O)NCCCOc1c(Br)cc(C/C(=N/O)C(=O)NCCc2c[nH]c(N)n2)cc1Br [LIPOPUREALIN A] | 28 | 28 | 29 | 30 | 9 | > 50
CC(C)CCCCCCCCCCCC(=O)NCCCOc1c(Br)cc(C/C(=N/O)C(=O)NCCc2c[nH]c(N)n2)cc1Br [LIPOPUREALIN B] | 29 | 28 | 30 | 25 | 12 | –
CCCCCCCCCCCCCCCC(=O)NCCCOc1c(Br)cc(C/C(=N/O)C(=O)NCCc2c[nH]c(N)n2)cc1Br [LIPOPUREALIN C] | 5.7 | 7 | 20 | 32 | 9.7 | –
NCCCOc1c(Br)cc(C/C(=N/O)C(=O)NCCc2c[nH]c(N)n2)cc1Br [PUREALIDIN A] | > 50 | > 50 | > 50 | > 50 | 4.7 | 42
COC1=C(Br)[C@@H](O)[C@]2(C=C1Br)CC(C(=O)NCCCOc1c(Br)cc(C/C(=N/O)C(=O)NCCc3c[nH]c(N)n3)cc1Br)=NO2 [PUREALIN] | > 50 | > 50 | > 50 | > 50 | 3.2 | 35
